Assays:
Type in all cases: cell-based, human
[1] = system: KB-V1 cells; assay: Cellular uptake by flow cytometry; settings: for Time dependence of cell fluorescence intensity (in words): 5 μM, 1, 2 and 4 h
[2] = system: KB-3-1 cells; assay: Subcellular colocalization, confocal microscopy; settings: 15 μM, 2 h, Lysotracker Green, Hoechst 33342
[3] = system: KB-V1 cells; assay: Cytotoxicity, SRB method; settings: 50 μM, 2 h incubation
[4] = system: KB-3-1 cells; assay: Cytotoxicity, SRB method; settings: 50 NM as printed, 2 h incubation
[5] = system: KB-V1 cells; assay: Subcellular colocalization, confocal microscopy; settings: 15 μM, 2 h, Lysotracker Green, Hoechst 33342
[6] = system: KB-3-1 cells; assay: Cellular uptake by flow cytometry; settings: 2.5-15 μM, 2 h

SMILES	Time dependence of cell fluorescence intensity (in words) [1]	Subcellular location (in words) [2]	Cytotoxicity (in words) [3]	Cells killed (cell death) ([3]; then 46 h fresh medium, SRB)	Cytotoxicity (in words) [4]	Cellular uptake (in words) ([1]; 2.5-15 μM, 2 h)	Subcellular location (in words) [5]	Cellular uptake (in words) [6]
O=C(O)c1ccc2c(c1)C(=O)OC21c2ccc(O)cc2Oc2cc(O)ccc21 [5-FAM, 5-carboxyfluorescein]	did not change with time							
COc1cccc2c1C(=O)c1c(O)c3c(c(O)c1C2=O)C[C@@](O)(C(=O)CO)C[C@@H]3O[C@H]1C[C@H](N)[C@H](O)[C@H](C)O1 [Dox, doxorubicin]	did not change with time	no preference to accumulate in any subcellular organelles	no significant cytotoxicity	14%	nearly all the cells were killed	greatly inhibited	dim red fluorescence was observed only on the membrane	very efficient

From publication PMC3651882 (Bioconjugate chemistry, 2013)
